Patent US8389739B1, “Modulators of retinoid-related orphan receptor gamma” (Orphagen Pharmaceuticals, priority 2006, dated 2013)

How the values were obtained:
[1] = molecular target: T1, RORα (mRORα) (Mus musculus, UniProt P51448); assay: Transcriptional assay of RORα as GAL4 hybrid; assay type: cell-based; conditions: same format as the GAL4-RORγ assay
T1 construct: mRORα (NR1F1, aa 266-523); expressed in transfected cells; host or cells: CHO cells, transient transfection
Experimental: (§1) This example also describes several additional tests that were commonly performed to confirm the authenticity of a hit to RORγ. These tests also verified the validity of the transcriptional and biochemical assays used. […] In some cases, close analogs of a confirmed hit were obtained by synthesis or purchase from a commercial source. The series of compounds related to the confirmed hit was then tested in the biochemical and transcriptional assays. The rank order of the potency of the compounds was then compared. […] The data imply in turn that the compounds are binding to the same binding pocket. […]
(§2) Four hours after transfection, cells were dislodged with trypsin and seeded into a 384-well plate at 8,000 cells/well using a Titertek Multidrop 384. […] After incubation for 2 hours at 37 degrees centigrade, the conversion of resazurin to resorufin was measured by fluorescence (excitation at 570 nm and emission at 615 nm). […] Percent viability was determined as 2 hour fluorescence, minus background at t=0 hours, normalized to DMSO controls. […] Luminescence is detected with a Victor 2-V plate reader (Perkin-Elmer) and normalized to luciferase activity of DMSO control wells alone.

[2] = molecular target: T2, RORβ (human RORβ) (Homo sapiens, UniProt Q92753); assay: Transcriptional assay of RORβ as GAL4 hybrid; assay type: cell-based; conditions: same format as the GAL4-RORγ assay
T2 construct: human RORβ (NR1F2, aa 201-459); expressed in transfected cells; host or cells: CHO cells, transient transfection
T2 sequence (Q92753 212-470): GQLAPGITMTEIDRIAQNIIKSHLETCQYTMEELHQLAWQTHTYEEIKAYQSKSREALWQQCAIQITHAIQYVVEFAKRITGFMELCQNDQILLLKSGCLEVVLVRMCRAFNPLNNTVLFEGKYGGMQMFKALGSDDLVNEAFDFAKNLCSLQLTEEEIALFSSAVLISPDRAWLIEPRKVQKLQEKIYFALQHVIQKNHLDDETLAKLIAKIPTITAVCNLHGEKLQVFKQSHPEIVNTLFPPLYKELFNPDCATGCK
Experimental: as §1, §2

[3] = molecular target: T3, SF-1 (human SF-1) (Homo sapiens, UniProt Q13285); assay: Transcriptional assay of SF-1 as GAL4 hybrid; assay type: cell-based; conditions: same format as the GAL4-RORγ assay
T3 construct: human SF-1 (NR5A1, aa 198-462); expressed in transfected cells; host or cells: CHO cells, transient transfection
T3 sequence (Q13285 198-461 limits assumed): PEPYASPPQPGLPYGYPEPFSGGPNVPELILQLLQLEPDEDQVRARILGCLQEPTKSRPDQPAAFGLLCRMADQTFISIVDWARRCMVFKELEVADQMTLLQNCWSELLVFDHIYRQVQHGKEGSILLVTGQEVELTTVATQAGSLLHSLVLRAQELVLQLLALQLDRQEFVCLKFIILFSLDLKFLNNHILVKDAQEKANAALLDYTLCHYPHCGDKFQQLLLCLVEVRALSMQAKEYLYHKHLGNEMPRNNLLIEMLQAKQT
Experimental: as §1, §2

[4] = test system: CHO cells; assay: Cytotoxicity in CHO cells (resazurin conversion); assay type: cell-based, Chinese Hamster
Experimental: Four hours after transfection, cells were dislodged with trypsin and seeded into a 384-well plate at 8,000 cells/well using a Titertek Multidrop 384. Edge effects within the 384-well plate were minimized by leaving plates at room temperature for 30 min so that cells plated evenly within each well (Lundholt, Scudder et al. 2003). Plates are maintained at 37° C. in a humidified atmosphere with 7% CO2 overnight. […] Approximately 40 hours later, cytotoxicity in the assay well was characterized by addition of the dye resazurin (O'Brien, Wilson et al. 2000) to a final concentration of 3 μM. After incubation for 2 hours at 37 degrees centigrade, the conversion of resazurin to resorufin was measured by fluorescence (excitation at 570 nm and emission at 615 nm). […] Percent viability was determined as 2 hour fluorescence, minus background at t=0 hours, normalized to DMSO controls. For detection of luciferase activity, media was removed from plates after the measurement of resazurin conversion, and SteadyLite luciferase reagent (Perkin-Elmer) was added (30 μl/well). Luminescence is detected with a Victor 2-V plate reader (Perkin-Elmer) and normalized to luciferase activity of DMSO control wells alone.

T1 sequence (P51448 266-523): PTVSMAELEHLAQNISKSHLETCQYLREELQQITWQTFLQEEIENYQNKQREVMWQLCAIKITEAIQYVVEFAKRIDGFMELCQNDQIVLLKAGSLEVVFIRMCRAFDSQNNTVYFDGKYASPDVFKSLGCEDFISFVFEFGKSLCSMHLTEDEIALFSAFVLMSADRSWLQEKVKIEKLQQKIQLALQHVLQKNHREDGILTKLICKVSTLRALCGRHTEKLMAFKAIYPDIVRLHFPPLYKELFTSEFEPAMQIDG

Structure (SMILES)	effect on the transcription of RORα [1]	effect on the transcription of RORβ [2]	effect on the transcription of SF-1 [3]	concentration not cytotoxic to CHO cells [4] [µM]
O=S(=O)(c1ccccc1)N(CC(F)(F)F)c1ccc(C(O)(C(F)(F)F)C(F)(F)F)cc1 [Compound T0901317, N-(2,2,2-Trifluoro-ethyl)-N-[4-(2,2,2-trifluoro-1-hydroxy-1-trifluoromethyl-ethyl)-phenyl]-benzenesulfonamide, reference compound]	no effects	no effects	no effects	< 10
CCN(c1ccc(C(O)(C(F)(F)F)C(F)(F)F)cc1)S(=O)(=O)c1ccc([N+](=O)[O-])cc1 [OR-1050, N-Ethyl-4-nitro-N-[4-(2,2,2-trifluoro-1-hydroxy-1-trifluoromethyl-ethyl)-phenyl]-benzenesulfonamide]	no effects	no effects	no effects	50
